Laboratory results reported in US20240166645A1, “PYRIDOPYRIMIDINONE DERIVATIVE, PREPARATION METHOD THEREFOR, AND USE THEREOF” (Wuhan Humanwell Innovative Drug Research and Development …, priority 2021, published 2024).
Where two headings read alike, the source gives them in different places.

Tests used:
H358 cells = test: Inhibition of 3D cell proliferation (3D CellTiter-Glo); type: cell-based; conditions: Homo sapiens, NCI-H358, 168 h, read-out: IC50 (nM), inhibition of 3D proliferation of H358 cells, 7 days
Experimental: H358 cells were seeded in a T75 culture flask and cultured in a RPMI 1640 medium containing 10% FBS for 2 days for subsequent experiments in which the cells would be cultured or seeded on a 384-well plate.
On day 1, the cells were seeded on the 384-well plate, with 40 μL of medium added per well and serially diluted compounds or DMSO added per well, and an additional well without seeded cells but with medium was set up as a blank control. After culture at 37° C., 5% CO2 for 7 days, the plate was added with 3D CellTiter-Glo reagent (Promega, Cat. No. G9683) on day 8, shaken at 320 rpm for 20 min, and left at room temperature for 2 h. Luminescence signals were read on a multifunctional microplate reader. Cell viability inhibition rate was calculated as:
Cell viability inhibition rate=(DMSO group−test compound)/(DMSO group−blank control group)×100%
IC50 values were calculated using Graphpad 5 software.

CYP3A4 = CYP3A4 (Homo sapiens (Human), UniProt P08684); test: Inhibition test on cytochrome P450 subtype CYP3A4; type: in vitro ADME; conditions: compound 10 μM, human liver microsomes
Chain of CYP3A4 (P08684 whole entry): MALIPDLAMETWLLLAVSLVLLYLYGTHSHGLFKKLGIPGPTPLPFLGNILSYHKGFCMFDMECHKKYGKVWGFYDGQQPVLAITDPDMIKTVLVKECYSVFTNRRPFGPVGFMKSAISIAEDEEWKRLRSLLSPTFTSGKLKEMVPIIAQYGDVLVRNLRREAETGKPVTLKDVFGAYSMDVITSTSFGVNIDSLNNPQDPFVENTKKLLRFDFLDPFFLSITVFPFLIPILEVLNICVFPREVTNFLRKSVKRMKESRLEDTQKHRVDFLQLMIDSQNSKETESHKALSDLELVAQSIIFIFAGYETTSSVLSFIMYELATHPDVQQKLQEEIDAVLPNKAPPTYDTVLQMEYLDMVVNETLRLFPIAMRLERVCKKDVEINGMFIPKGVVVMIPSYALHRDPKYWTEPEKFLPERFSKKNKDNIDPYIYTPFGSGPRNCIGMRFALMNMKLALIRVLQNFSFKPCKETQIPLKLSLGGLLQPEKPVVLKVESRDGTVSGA
Experimental: The inhibitory potential of compounds on cytochrome P450 (CYP450) subtype CYP3A4 (two substrates of midazolam and testosterone) was detected. First, the compound to be tested was prepared into a 10 mM stock solution in DMSO solvent, and the CYP3A4 inhibitor ketoconazole was prepared as 10 mM, 2.5 mM and 2.5 mM stock solutions in DMSO solvent. The test compound and ketoconazole were diluted to 400-fold final concentration (compound: 10 μM, ketoconazole: 2.5 μM) with acetonitrile.
NADPH cofactor (10 mL of potassium phosphate buffer added with 66.7 mg NADPH) at 4-fold final concentration and substrates were prepared with potassium phosphate buffer (0.1 M, pH=7.4), with CYP3A4 substrate midazolam at a final concentration of […] and CYP3A4 substrate testosterone at a final concentration of 20 μM.
A human liver microsome solution at a concentration of 0.2 mg/mL was prepared with potassium phosphate buffer on ice. A solution of the compound to be tested and a control inhibitor (control compound) solution at 2-fold final concentration were prepared with the human liver microsome solution on ice. The test wells were added with […] of the test compound solution and the control inhibitor solution respectively, and then added with […] of the substrate for duplication. A 96-well assay plate and a NADPH solution were incubated at 37° C. for 5 min, and 15 μL of pre-heated 8 mM NADPH solution was added to the assay plate to initiate the reaction. A CYP3A4 assay plate was pre-incubated at 37° C. for 5 min. The plate was added with 120 μL of acetonitrile to terminate the reaction, and after quenching, the plate was shaken on a shaker (IKA, MTS 2/4) for 10 min (600 rpm/min), and then centrifuged for 15 min. After centrifugation, the supernatant was collected, and added with purified water in a ratio of 1:1 to perform LC-MS/MS detection. A ratio of a peak area of compound to a peak area of internal standard was obtained, and the peak area ratio of the compound was compared with the peak area ratio of the control inhibitor to calculate the inhibition rate.

[1] = Pharmacokinetic test in mice; type: in vivo; conditions: mouse, plasma; male ICR mice, oral gavage, 10 mg/kg
Experimental: Male ICR mice (20 to 25 g) were used and fasted overnight. Three mice were taken and orally administered by gavage (10 mg/kg). Blood was collected before the administration, and at 15 min, 30 min, 1 h, 2 h, 4 h, 8 h and 24 h after the administration. 6,800 g of the blood samples were centrifuged at 2 to 8° C. for 6 min, and plasma was collected and stored at −80° C. The plasma at each time point was taken and added with an acetonitrile solution containing internal standard in 3 to 5 times the amount, vortexed and mixed for 1 min, and centrifuged at 13,000 rpm/min at 4° C. for 10 min. The supernatant was collected, added with water in 3 times the amount, and mixed. An appropriate amount of the mixture was taken for LC-MS/MS analysis. The main pharmacokinetic parameters were analyzed using WinNonlin 7.0 software with non-compartmental model.

[2] = pH 7.4, probe midazolam, substrate midazolam, read-out: CYP inhibition rate (%) CYP3A4 (midazolam)
[3] = pH 7.4, probe testosterone, substrate testosterone, read-out: CYP inhibition rate (%) CYP3A4 (testosterone)

| SMILES | IC50 (H358 cells) [nM] | inhibition at 5 min, 10 µM (CYP3A4; [2]) [%] | inhibition at 5 min, 10 µM (CYP3A4; [3]) [%] | AUC(0-t) [1] [ng·h/mL] | Cmax [1] [ng/mL] | Tmax [1] [min] | half-life [1] [min] |
| --- | --- | --- | --- | --- | --- | --- | --- |
| Cc1nc(N[C@H](C)c2cccc(S(=O)(=O)C(F)F)c2C)c2cn(C3(CF)CC3)c(=O)cc2n1 [Compound I-1, (R)-4-((1-(3-((difluoromethyl)sulfonyl)-2-methylphenyl)ethyl)amino)-6-(1-(fluoromethyl)cyclopropyl)-2-methylpyrido[4,3-d]pyrimidin-7(6H)-one] | 26 | 17.8 | 0 |  |  |  |  |
| Cc1nc(N[C@H](C)c2cccc(S(=O)(=O)C(F)(F)F)c2F)c2cn(C3(CF)CC3)c(=O)cc2n1 [Compound I-2, (R)-4-((1-(2-fluoro-3-((trifluoromethyl)sulfonyl)phenyl)ethyl)amino)-6-(1-(fluoromethyl)cyclopropyl)-2-methylpyrido[4,3-d]pyrimidin-7(6H)-one] | 13.9 | 10.8 | 0 | 517 | 256 | 30 | 59.4 |
